This note sets out measurements from ChEMBL document CHEMBL4765227, “Hit to lead optimization of a series of N-[4-(1,3-benzothiazol-2-yl)phenyl]acetamides as monoacylglycerol lipase inhibitors with potential anticancer activity” (Eur J Med Chem, 2016).

Format in all cases: functional
For one assay, the system named is CCRF-CEM. The experiment in a line: Growth inhibition of human CCRF-CEM cells incubated for 48 hrs by sulforhodamine B assay. Background: Sulforhodamine B stains cellular protein and so reports cell mass.
The next assay concerns UACC-62. The assay can be described thus: Growth inhibition of human UACC-62 cells incubated for 48 hrs by sulforhodamine B assay.
Another assay deals with Hs-578T. The experiment in a line: Growth inhibition of human Hs-578T cells incubated for 48 hrs by sulforhodamine B assay.
The subject of the next assay is COLO 205. The experiment in a line: Growth inhibition of human COLO 205 cells incubated for 48 hrs by sulforhodamine B assay.
The next assay has as its system HOP-62. The experiment in a line: Growth inhibition of human HOP-62 cells incubated for 48 hrs by sulforhodamine B assay. The conditions noted are these: for CC50: read-out: LC50 (the source's name).
A further assay has as its system HL-60(TB). The assay can be described thus: Growth inhibition of human HL-60(TB) cells incubated for 48 hrs by sulforhodamine B assay. The conditions noted are these: for CC50: read-out: LC50 (the source's name).

By GI50 is commonly meant the concentration at which growth is held to half of that of the control. Low values mean greater sensitivity of the cells, high ones lower sensitivity of the cells. A word on the TGI: it is the concentration giving total growth inhibition. Read a high TGI as less potent growth arrest. A word on the LC50: it is the concentration lethal to half of the exposed cells or organisms. A high value points to lower toxicity. As for `O=C(CNc1c(Cl)cccc1Cl)Nc1ccc(-c2nc3ccccc3s2)cc1`, the 50% growth inhibitory concentration (GI50) came to 0.657 µM in the assay with CCRF-CEM; 1.72 µM with UACC-62; 5.58 µM in the assay with Hs-578T; 2.1 µM in the assay with COLO 205; 3.31 µM in the assay on HOP-62; 2.43 µM with HL-60(TB). For the same compound, the TGI in the assay on CCRF-CEM worked out at 2.97 µM; in the assay on UACC-62 it was 3.92 µM; in the assay on Hs-578T, 69.3 µM; with COLO 205, 4.29 µM; in the assay with HOP-62, 11.8 µM; in the assay with HL-60(TB), 8.38 µM. For the same compound, the results for the CC50 in the assay with CCRF-CEM (read-out: LC50 (the source's name)), in the assay with HOP-62 and with HL-60(TB) were 45.9 µM, 77.8 µM and above 100 µM, respectively. Moreover, the LC50 with UACC-62 is 8.97 µM; in the assay on Hs-578T, above 100 µM; in the assay with COLO 205, 8.79 µM.
On to `O=C(CNc1ccc(Cl)cc1)Nc1ccc(-c2nc3ccccc3s2)cc1`, for which the concentration for 50% growth inhibition (GI50) in the assay with UACC-62 was found to be 1.7 µM; in the assay with Hs-578T it was 4.41 µM; in the assay with COLO 205, 2.08 µM; with HOP-62, 3.34 µM; in the assay with HL-60(TB), 2.23 µM. For the same compound, the LC50 with UACC-62 was 19.4 µM; in the assay with Hs-578T it was above 100 µM; in the assay on COLO 205, 9.08 µM. Also, the concentration for total growth inhibition (TGI) in the assay with UACC-62 worked out at 4.22 µM; in the assay on Hs-578T, 37.7 µM; in the assay on COLO 205, 4.35 µM; with HOP-62 it was 12.9 µM; in the assay on HL-60(TB) it was 6.05 µM. The CC50 in the assay with HOP-62 and in the assay with HL-60(TB) was above 100 µM in each case.
